Measured values reported in ChEMBL document CHEMBL1201862, “PubChem BioAssay data set” (2004).
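Five concentrations, 48 hours, 96-well plates. GI50 = concentration required for 50% inhibition of growth.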 Active and inactive are the calls of the source. Rule as the data show it: active = GI50 up to about 1.1 µM and inactive = higher.

Tests used:
Assay in all cases: NCI anticancer screen, dose series, 48 h
[1] = test system: TK-10
[2] = test system: HCT-15
[3] = test system: HT-29
[4] = test system: CCRF-CEM
[5] = test system: IGROV-1
[6] = test system: SK-MEL-5
[7] = test system: SW-620
[8] = test system: HL-60
[9] = test system: 786-0
[10] = test system: SR
[11] = test system: PC-3
[12] = test system: ACHN
[13] = test system: OVCAR-5
[14] = test system: SK-MEL-2
[15] = test system: SF-295
[16] = test system: RPMI-8226
[17] = test system: SF-268
[18] = test system: SF-539
[19] = test system: HOP-62
[20] = test system: CAKI-1
[21] = test system: RXF 393
[22] = test system: M14
[23] = test system: U-251
[24] = test system: Hs-578T
[25] = test system: NCI/ADR-RES
[26] = test system: NCI-H23
[27] = test system: HCT-116
[28] = test system: HOP-92
[29] = test system: EKVX
[30] = test system: UO-31
[31] = test system: NCI-H226
[32] = test system: K562
[33] = test system: T47D
[34] = test system: OVCAR-3
[35] = test system: HCC 2998
[36] = test system: MOLT-4
[37] = test system: A498
[38] = test system: OVCAR-4
[39] = test system: SK-OV-3
[40] = test system: NCI-H460
[41] = test system: LOX IMVI
[42] = test system: KM12
[43] = test system: NCI-H522
[44] = test system: OVCAR-8
[45] = test system: SK-MEL-28
[46] = test system: MDA-MB-435
[47] = test system: MDA-N
[48] = test system: MCF7
[49] = test system: UACC-257
[50] = test system: DU-145
[51] = test system: MDA-MB-231
[52] = test system: SNB-19
[53] = test system: COLO 205
[54] = test system: SNB-75
[55] = test system: A549
[56] = test system: Malme-3M
[57] = test system: SN12C
[58] = test system: BT-549

In the case of `CCCCC1Cc2ccccc2-c2n1c1ccccc1[n+]2C` (stereo not drawn), the GI50 [1] is reported as 22.8 µM (inactive), the GI50 [2] is reported as 95.5 µM and the GI50 [3] is reported as 10 µM (inactive). For the same molecule, the GI50 [4] was 10.9 µM (inactive), the GI50 [5] was 17.3 µM (inactive) and the GI50 [6] was 4.54 µM (inactive). The GI50 [7] was 23.7 µM (inactive), the GI50 [8] was 3.99 µM (inactive) and the GI50 [9] was 38.2 µM (inactive). For the same molecule, the GI50 [10] was 7.67 µM (inactive), the GI50 [11] was 5.93 µM (inactive) and the GI50 [12] was 37.9 µM (inactive). The GI50 [13] was 42.9 µM (inactive), the GI50 [14] was 8.53 µM (inactive) and the GI50 [15] was 6.92 µM (inactive). The GI50 [16] was 1.94 µM (inactive), the GI50 [17] was 11.4 µM (inactive) and the GI50 [18] was 27.8 µM (inactive). For the same molecule, the GI50 [19] was 24.9 µM (inactive), the GI50 [20] was > 100 µM (inactive) and the GI50 [21] was 13.3 µM (inactive). The GI50 [22] was 23.3 µM (inactive), the GI50 [23] was 3.1 µM (inactive) and the GI50 [24] was 12.1 µM (inactive). For the same molecule, the GI50 [25] was > 100 µM (inactive), the GI50 [26] was 2.17 µM (inactive) and the GI50 [27] was 17.6 µM (inactive). The GI50 [28] was 20.4 µM (inactive), the GI50 [29] was 25.9 µM (inactive) and the GI50 [30] was 66.7 µM (inactive). For the same molecule, the GI50 [31] was 22.3 µM (inactive), the GI50 [32] was 2.49 µM (inactive) and the GI50 [33] was 0.959 µM (active). For the same molecule, the GI50 [34] was 4.15 µM (inactive), the GI50 [35] was 5.47 µM (inactive) and the GI50 [36] was 12.3 µM (inactive). For the same molecule, the GI50 [37] was 23.6 µM (inactive), the GI50 [38] was 24.5 µM (inactive) and the GI50 [39] was 35.9 µM (inactive). The GI50 [40] was 16.2 µM (inactive), the GI50 [41] was 10.4 µM (inactive) and the GI50 [42] was 9.55 µM (inactive). The GI50 [43] was 3.87 µM (inactive), the GI50 [44] was 21.9 µM (inactive) and the GI50 [45] was 11.3 µM (inactive). The GI50 [46] was 10.3 µM (inactive), the GI50 [47] was 12.3 µM (inactive) and the GI50 [48] was 8.77 µM (inactive). For the same molecule, the GI50 [49] was 1.87 µM (inactive), the GI50 [50] was 33.7 µM (inactive) and the GI50 [51] was 22.2 µM (inactive).
In the case of `COc1ccc(/N=C(C)/C(C)=N/c2ccc(OC)cc2)cc1`, the GI50 [1] is reported as > 100 µM (inactive), the GI50 [2] is reported as 15.6 µM and the GI50 [3] is reported as 48.6 µM (inactive). For the same molecule, the GI50 [4] was 39.1 µM (inactive), the GI50 [5] was > 100 µM (inactive) and the GI50 [6] was 64 µM (inactive). For the same molecule, the GI50 [7] was 63.1 µM (inactive), the GI50 [8] was 52.2 µM (inactive) and the GI50 [9] was > 100 µM (inactive). For the same molecule, the GI50 [10] was 65.6 µM (inactive), the GI50 [11] was 40.7 µM (inactive) and the GI50 [12] was 3.36 µM (inactive). For the same molecule, the GI50 [13] was > 100 µM (inactive), the GI50 [14] was > 100 µM (inactive) and the GI50 [15] was 17 µM (inactive). The GI50 [16] was 25.1 µM (inactive), the GI50 [17] was 52.5 µM (inactive) and the GI50 [18] was 30.8 µM (inactive). For the same molecule, the GI50 [52] was > 100 µM (inactive), the GI50 [19] was > 100 µM (inactive) and the GI50 [20] was 35.5 µM (inactive). The GI50 [21] was > 100 µM (inactive), the GI50 [22] was 9.91 µM (inactive) and the GI50 [23] was > 100 µM (inactive). For the same molecule, the GI50 [24] was > 100 µM (inactive), the GI50 [25] was 62.8 µM (inactive) and the GI50 [26] was 73.6 µM (inactive). For the same molecule, the GI50 [27] was 72.6 µM (inactive), the GI50 [53] was 14.4 µM (inactive) and the GI50 [28] was 88.1 µM (inactive). For the same molecule, the GI50 [54] was > 100 µM (inactive), the GI50 [29] was > 100 µM (inactive) and the GI50 [30] was 6.97 µM (inactive). The GI50 [31] was > 100 µM (inactive), the GI50 [32] was 64.9 µM (inactive) and the GI50 [33] was 77.1 µM (inactive). For the same molecule, the GI50 [34] was > 100 µM (inactive), the GI50 [35] was 20.2 µM (inactive) and the GI50 [55] was 37.9 µM (inactive). For the same molecule, the GI50 [36] was 15.6 µM (inactive), the GI50 [37] was > 100 µM (inactive) and the GI50 [38] was 17.7 µM (inactive). For the same molecule, the GI50 [39] was > 100 µM (inactive), the GI50 [40] was 20.3 µM (inactive) and the GI50 [41] was 5.02 µM (inactive). The GI50 [56] was > 100 µM (inactive), the GI50 [42] was 6.85 µM (inactive) and the GI50 [43] was > 100 µM (inactive). The GI50 [44] was 58.6 µM (inactive), the GI50 [57] was > 100 µM (inactive) and the GI50 [45] was > 100 µM (inactive). For the same molecule, the GI50 [46] was 8.95 µM (inactive), the GI50 [48] was > 100 µM (inactive) and the GI50 [58] was 3.78 µM (inactive). For the same molecule, the GI50 [49] was 56.9 µM (inactive), the GI50 [50] was 30.9 µM (inactive) and the GI50 [51] was > 100 µM (inactive).
